Experiment in all cases: KINOMEscan competitive binding, whole panel
For experiment [1], the target named is T1, panel of 203 kinases (Homo sapiens, UniProt O43293).
T1 construct: purchased DiscoverX (KINOMEscan)
The settings on record: 10 µM, n=1; kinase DAPK3; read-out: Percent inhibition DAPK3. In short, it runs like this:
(§1)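 Percentage inhibition reflects loss of kinase binding to solid-phase ATP-site probe ligands in the presence of compound. Kinases carry a T7 bacteriophage fusion.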

For experiment [2], the target named is T2, panel of 203 kinases (Homo sapiens, UniProt Q13557).
T2 construct: purchased DiscoverX (KINOMEscan)
The settings on record: 10 µM, n=1; kinase CAMK2D; read-out: Percent inhibition CAMK2D. In short, it runs like this: as §1

The target of experiment [3] is T3, panel of 203 kinases (Homo sapiens, UniProt P06213).
T3 construct: purchased DiscoverX (KINOMEscan)
The settings on record: 10 µM, n=1; kinase INSR; read-out: Percent inhibition INSR. In short, it runs like this:
as §1

For experiment [4], the target named is T4, panel of 203 kinases (Homo sapiens, UniProt Q16584).
T4 construct: purchased DiscoverX (KINOMEscan)
The settings on record: 10 µM, n=1; kinase MLK3; read-out: Percent inhibition MLK3. The essentials: as §1

Experiment [5] has as its target T5, panel of 203 kinases (Homo sapiens, UniProt P36896).
T5 construct: purchased DiscoverX (KINOMEscan)
T5 sequence (P36896 24-505): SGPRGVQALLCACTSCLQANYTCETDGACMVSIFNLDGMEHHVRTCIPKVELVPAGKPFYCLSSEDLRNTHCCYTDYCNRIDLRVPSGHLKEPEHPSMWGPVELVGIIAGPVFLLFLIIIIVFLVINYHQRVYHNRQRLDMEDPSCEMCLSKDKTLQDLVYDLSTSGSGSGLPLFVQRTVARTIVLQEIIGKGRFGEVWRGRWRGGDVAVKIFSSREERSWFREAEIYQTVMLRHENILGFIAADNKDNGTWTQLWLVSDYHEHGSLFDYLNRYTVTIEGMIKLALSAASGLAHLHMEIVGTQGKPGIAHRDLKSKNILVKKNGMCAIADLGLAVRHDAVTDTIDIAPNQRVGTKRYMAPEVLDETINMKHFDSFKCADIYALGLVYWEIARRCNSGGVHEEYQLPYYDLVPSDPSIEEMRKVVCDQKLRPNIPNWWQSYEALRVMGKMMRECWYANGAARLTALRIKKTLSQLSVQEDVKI
The note with it: 10 µM, n=1; kinase ACVR1B; read-out: Percent inhibition ACVR1B. In short, it runs like this:
as §1

The target in experiment [6] is T6, panel of 203 kinases (Homo sapiens, UniProt Q9HBH9).
T6 construct: purchased DiscoverX (KINOMEscan)
The note with it: 10 µM, n=1; kinase MKNK2; read-out: Percent inhibition MKNK2. In short, it runs like this:
as §1

Experiment [7] addresses T7, panel of 203 kinases (Homo sapiens, UniProt Q92918).
T7 construct: purchased DiscoverX (KINOMEscan)
The settings on record: 10 µM, n=1; kinase MAP4K1; read-out: Percent inhibition MAP4K1. In short, it runs like this:
as §1

Experiment [8] deals with T8, panel of 203 kinases (Homo sapiens, UniProt P54762).
T8 construct: purchased DiscoverX (KINOMEscan)
T8 sequence (P54762 18-984): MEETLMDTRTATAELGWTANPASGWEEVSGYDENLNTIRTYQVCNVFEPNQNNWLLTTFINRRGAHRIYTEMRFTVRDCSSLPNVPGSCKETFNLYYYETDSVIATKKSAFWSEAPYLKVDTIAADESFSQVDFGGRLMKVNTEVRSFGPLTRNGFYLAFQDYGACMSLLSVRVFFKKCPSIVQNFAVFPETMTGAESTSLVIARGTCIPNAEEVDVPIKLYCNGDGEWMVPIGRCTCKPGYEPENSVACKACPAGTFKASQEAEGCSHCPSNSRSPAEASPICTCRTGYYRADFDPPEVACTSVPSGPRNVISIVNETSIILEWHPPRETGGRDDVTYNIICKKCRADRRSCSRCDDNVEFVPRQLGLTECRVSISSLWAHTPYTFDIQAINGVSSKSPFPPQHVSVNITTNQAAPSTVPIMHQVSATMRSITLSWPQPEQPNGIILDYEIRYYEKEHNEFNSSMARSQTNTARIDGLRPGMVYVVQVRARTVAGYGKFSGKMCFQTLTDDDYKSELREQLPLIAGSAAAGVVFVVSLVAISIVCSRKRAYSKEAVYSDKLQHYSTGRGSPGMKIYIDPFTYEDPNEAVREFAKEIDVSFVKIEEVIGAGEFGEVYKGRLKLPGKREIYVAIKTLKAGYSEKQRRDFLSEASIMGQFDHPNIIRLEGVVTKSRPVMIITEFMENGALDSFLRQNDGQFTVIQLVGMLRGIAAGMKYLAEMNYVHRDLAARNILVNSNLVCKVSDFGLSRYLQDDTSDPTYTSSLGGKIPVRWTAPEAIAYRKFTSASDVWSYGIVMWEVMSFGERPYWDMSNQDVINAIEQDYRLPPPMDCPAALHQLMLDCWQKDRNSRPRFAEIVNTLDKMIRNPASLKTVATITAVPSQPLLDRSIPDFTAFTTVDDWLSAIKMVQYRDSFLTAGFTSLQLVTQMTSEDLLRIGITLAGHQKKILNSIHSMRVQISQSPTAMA
The settings on record: 10 µM, n=1; kinase EPHB1; read-out: Percent inhibition EPHB1. In short, it runs like this:
as §1

Experiment [9] has as its target T9, panel of 203 kinases (Homo sapiens, UniProt Q13555).
T9 construct: purchased DiscoverX (KINOMEscan)
The note with it: 10 µM, n=1; kinase CAMK2G; read-out: Percent inhibition CAMK2G. The essentials:
as §1

Experiment [10] addresses T10, panel of 203 kinases (Homo sapiens, UniProt Q9UQB9).
T10 construct: purchased DiscoverX (KINOMEscan)
T10 sequence (Q9UQB9 1-309): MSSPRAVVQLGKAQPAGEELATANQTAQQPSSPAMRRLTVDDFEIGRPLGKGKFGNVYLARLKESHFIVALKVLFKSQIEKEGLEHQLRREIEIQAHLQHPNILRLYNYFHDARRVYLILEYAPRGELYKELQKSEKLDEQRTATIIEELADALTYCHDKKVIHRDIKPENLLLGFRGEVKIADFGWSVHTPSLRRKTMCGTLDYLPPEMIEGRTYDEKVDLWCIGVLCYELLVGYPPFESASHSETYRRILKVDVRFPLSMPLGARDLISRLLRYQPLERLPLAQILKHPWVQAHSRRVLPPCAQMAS
The note with it: 10 µM, n=1; kinase AURKC; read-out: Percent inhibition AURKC. In short, it runs like this: as §1

The target of experiment [11] is T11, panel of 203 kinases (Homo sapiens, UniProt Q13131).
T11 construct: purchased DiscoverX (KINOMEscan)
The note with it: 10 µM, n=1; kinase AMPK-alpha1; read-out: Percent inhibition AMPK-alpha1. In short, it runs like this: as §1

Experiment [12] concerns the target T12, panel of 203 kinases (Homo sapiens, UniProt Q14012).
T12 construct: purchased DiscoverX (KINOMEscan)
The settings on record: 10 µM, n=1; kinase CAMK1; read-out: Percent inhibition CAMK1. The essentials:
as §1

One may read the inhibition as the change of the read-out against control, counted positive when it falls.

T1 sequence (O43293 whole entry): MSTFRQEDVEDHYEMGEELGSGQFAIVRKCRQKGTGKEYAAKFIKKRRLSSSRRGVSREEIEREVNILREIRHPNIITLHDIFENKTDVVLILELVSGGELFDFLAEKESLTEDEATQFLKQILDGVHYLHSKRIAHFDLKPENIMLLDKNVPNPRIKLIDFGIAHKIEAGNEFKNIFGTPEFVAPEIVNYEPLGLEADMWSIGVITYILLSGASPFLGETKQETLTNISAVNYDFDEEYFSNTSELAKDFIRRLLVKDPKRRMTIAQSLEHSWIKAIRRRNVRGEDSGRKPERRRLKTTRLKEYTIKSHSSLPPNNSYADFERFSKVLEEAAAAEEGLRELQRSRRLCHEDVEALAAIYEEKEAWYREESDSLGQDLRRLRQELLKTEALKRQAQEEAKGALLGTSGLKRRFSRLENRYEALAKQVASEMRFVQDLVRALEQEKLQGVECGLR
T2 sequence (Q13557 whole entry): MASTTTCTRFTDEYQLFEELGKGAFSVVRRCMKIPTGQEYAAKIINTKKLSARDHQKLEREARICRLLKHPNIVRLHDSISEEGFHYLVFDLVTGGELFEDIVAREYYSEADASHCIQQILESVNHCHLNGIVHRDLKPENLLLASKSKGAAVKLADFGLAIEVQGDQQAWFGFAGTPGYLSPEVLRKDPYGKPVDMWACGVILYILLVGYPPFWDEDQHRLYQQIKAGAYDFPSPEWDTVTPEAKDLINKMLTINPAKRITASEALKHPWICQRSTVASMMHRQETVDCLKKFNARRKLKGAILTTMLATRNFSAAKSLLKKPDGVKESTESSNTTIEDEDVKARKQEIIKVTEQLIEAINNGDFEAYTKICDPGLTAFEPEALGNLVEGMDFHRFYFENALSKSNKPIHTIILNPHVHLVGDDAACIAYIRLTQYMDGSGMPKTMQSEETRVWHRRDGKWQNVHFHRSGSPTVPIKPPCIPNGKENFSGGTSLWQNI
T7 sequence (Q92918 whole entry): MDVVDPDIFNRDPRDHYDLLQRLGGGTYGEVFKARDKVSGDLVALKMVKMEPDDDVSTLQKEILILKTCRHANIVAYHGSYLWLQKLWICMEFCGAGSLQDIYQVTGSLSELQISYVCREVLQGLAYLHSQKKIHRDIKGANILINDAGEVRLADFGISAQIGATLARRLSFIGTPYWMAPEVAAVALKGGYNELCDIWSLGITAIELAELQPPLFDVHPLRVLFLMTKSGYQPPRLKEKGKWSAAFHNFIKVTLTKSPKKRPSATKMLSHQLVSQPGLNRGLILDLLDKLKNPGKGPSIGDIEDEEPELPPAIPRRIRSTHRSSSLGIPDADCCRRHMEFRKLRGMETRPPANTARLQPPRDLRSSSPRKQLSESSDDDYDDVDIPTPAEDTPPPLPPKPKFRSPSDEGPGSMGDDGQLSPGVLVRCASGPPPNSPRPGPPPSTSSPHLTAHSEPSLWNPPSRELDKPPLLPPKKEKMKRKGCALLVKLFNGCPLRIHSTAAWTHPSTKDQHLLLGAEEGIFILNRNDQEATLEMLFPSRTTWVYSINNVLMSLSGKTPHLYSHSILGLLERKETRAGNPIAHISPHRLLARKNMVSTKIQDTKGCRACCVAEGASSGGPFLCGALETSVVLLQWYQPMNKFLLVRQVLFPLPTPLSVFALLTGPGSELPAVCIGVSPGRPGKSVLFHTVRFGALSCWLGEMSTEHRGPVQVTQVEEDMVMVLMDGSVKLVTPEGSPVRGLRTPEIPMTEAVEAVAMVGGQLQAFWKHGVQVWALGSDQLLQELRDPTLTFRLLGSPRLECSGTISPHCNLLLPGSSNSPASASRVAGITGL
T11 sequence (Q13131 whole entry): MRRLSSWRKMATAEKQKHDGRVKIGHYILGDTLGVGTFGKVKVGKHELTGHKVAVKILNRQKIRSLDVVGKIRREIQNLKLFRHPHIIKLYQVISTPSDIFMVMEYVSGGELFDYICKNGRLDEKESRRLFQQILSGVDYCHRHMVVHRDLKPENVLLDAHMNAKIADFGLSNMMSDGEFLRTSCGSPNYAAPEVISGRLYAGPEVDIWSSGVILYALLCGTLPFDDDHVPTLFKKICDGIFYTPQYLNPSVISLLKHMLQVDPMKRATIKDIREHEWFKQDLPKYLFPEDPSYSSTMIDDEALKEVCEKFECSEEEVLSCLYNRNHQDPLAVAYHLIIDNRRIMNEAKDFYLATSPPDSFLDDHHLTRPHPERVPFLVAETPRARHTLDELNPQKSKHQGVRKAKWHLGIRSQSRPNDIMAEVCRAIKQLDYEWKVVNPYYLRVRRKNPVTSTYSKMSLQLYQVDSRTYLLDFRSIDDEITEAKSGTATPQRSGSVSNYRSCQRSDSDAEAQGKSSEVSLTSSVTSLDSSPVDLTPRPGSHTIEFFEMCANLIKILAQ
T3 sequence (P06213 28-1382): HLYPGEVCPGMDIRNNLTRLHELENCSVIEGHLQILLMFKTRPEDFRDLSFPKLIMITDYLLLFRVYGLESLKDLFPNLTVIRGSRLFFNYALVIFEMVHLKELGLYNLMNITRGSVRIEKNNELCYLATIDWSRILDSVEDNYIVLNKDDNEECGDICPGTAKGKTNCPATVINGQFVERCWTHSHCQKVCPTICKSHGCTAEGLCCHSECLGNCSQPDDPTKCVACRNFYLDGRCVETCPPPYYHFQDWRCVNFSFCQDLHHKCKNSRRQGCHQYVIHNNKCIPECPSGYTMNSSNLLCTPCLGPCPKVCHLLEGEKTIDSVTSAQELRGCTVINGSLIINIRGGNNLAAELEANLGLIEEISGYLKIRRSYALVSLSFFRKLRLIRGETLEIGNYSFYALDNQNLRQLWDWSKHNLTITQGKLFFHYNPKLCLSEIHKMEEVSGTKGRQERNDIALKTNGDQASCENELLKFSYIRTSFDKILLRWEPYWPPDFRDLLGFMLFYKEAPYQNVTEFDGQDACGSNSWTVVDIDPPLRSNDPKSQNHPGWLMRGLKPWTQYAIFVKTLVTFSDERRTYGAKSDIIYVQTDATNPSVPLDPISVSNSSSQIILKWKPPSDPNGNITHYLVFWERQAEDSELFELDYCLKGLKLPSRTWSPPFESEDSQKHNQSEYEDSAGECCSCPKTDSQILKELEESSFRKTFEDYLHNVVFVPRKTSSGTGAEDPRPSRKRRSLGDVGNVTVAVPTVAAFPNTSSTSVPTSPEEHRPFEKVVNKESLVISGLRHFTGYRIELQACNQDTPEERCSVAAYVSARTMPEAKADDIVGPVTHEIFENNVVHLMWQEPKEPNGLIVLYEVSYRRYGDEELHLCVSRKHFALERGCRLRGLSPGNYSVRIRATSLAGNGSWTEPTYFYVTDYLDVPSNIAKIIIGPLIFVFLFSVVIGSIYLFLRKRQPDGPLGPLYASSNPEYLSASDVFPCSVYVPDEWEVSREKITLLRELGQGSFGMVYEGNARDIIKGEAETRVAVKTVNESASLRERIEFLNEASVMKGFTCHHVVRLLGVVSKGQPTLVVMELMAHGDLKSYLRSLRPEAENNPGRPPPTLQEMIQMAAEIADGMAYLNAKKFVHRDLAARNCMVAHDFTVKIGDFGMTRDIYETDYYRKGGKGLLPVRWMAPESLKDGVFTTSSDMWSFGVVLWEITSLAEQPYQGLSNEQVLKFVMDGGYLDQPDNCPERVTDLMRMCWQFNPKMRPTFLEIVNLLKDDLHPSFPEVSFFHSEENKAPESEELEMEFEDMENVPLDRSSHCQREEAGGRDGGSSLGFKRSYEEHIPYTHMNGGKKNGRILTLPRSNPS
T9 sequence (Q13555 whole entry): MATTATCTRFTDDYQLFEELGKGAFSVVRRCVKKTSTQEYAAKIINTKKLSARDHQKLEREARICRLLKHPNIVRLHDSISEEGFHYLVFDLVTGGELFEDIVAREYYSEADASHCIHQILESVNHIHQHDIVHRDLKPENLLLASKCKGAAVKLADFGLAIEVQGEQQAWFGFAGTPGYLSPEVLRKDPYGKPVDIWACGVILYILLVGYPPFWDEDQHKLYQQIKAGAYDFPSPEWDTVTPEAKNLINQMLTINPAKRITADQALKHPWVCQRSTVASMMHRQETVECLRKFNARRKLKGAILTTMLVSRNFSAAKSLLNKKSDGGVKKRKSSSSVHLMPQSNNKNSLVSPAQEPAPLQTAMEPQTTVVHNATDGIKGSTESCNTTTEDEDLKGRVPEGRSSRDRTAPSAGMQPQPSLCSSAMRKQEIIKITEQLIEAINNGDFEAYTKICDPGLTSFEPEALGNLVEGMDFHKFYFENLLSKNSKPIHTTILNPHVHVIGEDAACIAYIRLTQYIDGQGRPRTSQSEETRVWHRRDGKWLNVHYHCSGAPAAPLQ
T12 sequence (Q14012 whole entry): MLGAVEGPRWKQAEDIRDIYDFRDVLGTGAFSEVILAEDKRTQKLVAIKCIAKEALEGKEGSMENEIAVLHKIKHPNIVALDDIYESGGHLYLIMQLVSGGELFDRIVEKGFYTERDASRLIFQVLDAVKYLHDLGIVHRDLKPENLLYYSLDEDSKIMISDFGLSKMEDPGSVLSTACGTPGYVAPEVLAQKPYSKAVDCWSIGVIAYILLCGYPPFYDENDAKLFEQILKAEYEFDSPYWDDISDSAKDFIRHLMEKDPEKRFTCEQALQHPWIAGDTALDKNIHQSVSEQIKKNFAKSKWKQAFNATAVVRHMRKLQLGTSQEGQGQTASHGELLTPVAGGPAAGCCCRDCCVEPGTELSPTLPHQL

As for `Cc1ccc(O)cc1Nc1ccnc(Nc2cccc(C(N)=O)c2)n1` [Compound 3], the inhibition at 10 µM was 0% on panel of 203 kinases [1]; 0% on panel of 203 kinases [2]; 0% at panel of 203 kinases [3]; 69.4% at panel of 203 kinases [4]; 96.5% at panel of 203 kinases [5]; 83.9% on panel of 203 kinases [6]. For the same compound, the inhibition at 10 µM worked out at 83.9% on panel of 203 kinases [7]; 100% at panel of 203 kinases [8]; 0% on panel of 203 kinases [9]; 0% at panel of 203 kinases [10]; 0% on panel of 203 kinases [11]; 0% on panel of 203 kinases [12].
Regarding `Clc1ccc(Nc2ncc(-c3ccccc3)s2)cc1` [Compound 10], the inhibition at 10 µM is 0% at panel of 203 kinases [1]; 0% at panel of 203 kinases [2]; 0% at panel of 203 kinases [3]; 0% on panel of 203 kinases [4]; 0% on panel of 203 kinases [5]; 65.7% at panel of 203 kinases [6]. The inhibition at 10 µM on panel of 203 kinases [7], at panel of 203 kinases [8], on panel of 203 kinases [9], at panel of 203 kinases [10], on panel of 203 kinases [11] and on panel of 203 kinases [12] was 0% each time.
Turning to `c1ccc(COc2cccc(-c3ccnc4[nH]ccc34)c2)cc1` [Compound 9], the inhibition at 10 µM at panel of 203 kinases [1], at panel of 203 kinases [2], at panel of 203 kinases [3], on panel of 203 kinases [4], at panel of 203 kinases [5] and on panel of 203 kinases [6] was 0% throughout. For the same compound, the inhibition at 10 µM at panel of 203 kinases [7], at panel of 203 kinases [8], on panel of 203 kinases [9], at panel of 203 kinases [10], at panel of 203 kinases [11] and at panel of 203 kinases [12] was 0% in each case.
`Fc1cccc(COc2ccc(Nc3ncnc4c3CN(CCN3CCOCC3)CC4)cc2Cl)c1` [Compound 6]: the inhibition at 10 µM at panel of 203 kinases [1], on panel of 203 kinases [2], on panel of 203 kinases [3], on panel of 203 kinases [4], at panel of 203 kinases [5] and on panel of 203 kinases [6] was 0% throughout. In addition, the inhibition at 10 µM on panel of 203 kinases [7], at panel of 203 kinases [8], on panel of 203 kinases [9], on panel of 203 kinases [10], on panel of 203 kinases [11] and at panel of 203 kinases [12] was 0% throughout.
Take `C[C@@H](Oc1cc(-c2cnc3ccccn23)sc1C(N)=O)c1ccccc1Cl` [Compound 8]: the inhibition at 10 µM is 89.3% at panel of 203 kinases [1]; 0% at panel of 203 kinases [2]; 0% at panel of 203 kinases [3]; 0% at panel of 203 kinases [4]; 0% at panel of 203 kinases [5]; 0% on panel of 203 kinases [6]. For the same compound, the inhibition at 10 µM at panel of 203 kinases [7] was determined as 0%; at panel of 203 kinases [8] it was 0%; on panel of 203 kinases [9], 0%; on panel of 203 kinases [10] it was 96%; on panel of 203 kinases [11], 0%; on panel of 203 kinases [12], 0%.
Take `CN1CCN(c2ccc(Nc3nccc(-c4cnn5ncccc45)n3)cc2C#N)CC1` [Compound 1]: the inhibition at 10 µM was found to be 98.5% at panel of 203 kinases [1]; 96.5% on panel of 203 kinases [2]; 94.3% on panel of 203 kinases [3]; 0% on panel of 203 kinases [4]; 77.1% at panel of 203 kinases [5]; 97% on panel of 203 kinases [6]. Also, the inhibition at 10 µM is 99.5% at panel of 203 kinases [7]; 99.3% on panel of 203 kinases [8]; 97.7% at panel of 203 kinases [9]; 96.5% on panel of 203 kinases [10]; 75.7% on panel of 203 kinases [11]; 92.3% at panel of 203 kinases [12].
In the case of `Cc1ccc(O)cc1N(C)c1ccnc(Nc2cccc(S(N)(=O)=O)c2)n1` [Compound 4], the inhibition at 10 µM came to 0% at panel of 203 kinases [1]; 0% on panel of 203 kinases [2]; 0% at panel of 203 kinases [3]; 81% on panel of 203 kinases [4]; 99% on panel of 203 kinases [5]; 99.3% at panel of 203 kinases [6]. In addition, the inhibition at 10 µM came to 99.5% at panel of 203 kinases [7]; 100% at panel of 203 kinases [8]; 0% on panel of 203 kinases [9]; 0% at panel of 203 kinases [10]; 0% at panel of 203 kinases [11]; 0% at panel of 203 kinases [12].
`COc1ccc(Nc2nccc(-c3cnn4ncccc34)n2)cc1` [Compound 2]: the inhibition at 10 µM on panel of 203 kinases [1] is 0%; on panel of 203 kinases [2] it was 79.5%; on panel of 203 kinases [3], 76.9%; on panel of 203 kinases [4], 75.5%; on panel of 203 kinases [5] it was 0%; on panel of 203 kinases [6] it was 99.4%. Further, the inhibition at 10 µM on panel of 203 kinases [7] was 0%; at panel of 203 kinases [8], 99.8%; at panel of 203 kinases [9], 75.2%; at panel of 203 kinases [10] it was 91.1%; at panel of 203 kinases [11], 0%; at panel of 203 kinases [12], 0%.
Take `Nc1ncc2c(-c3ccncc3)c[nH]c2n1` [Compound 11]: the inhibition at 10 µM stood at 0% on panel of 203 kinases [1]; 0% at panel of 203 kinases [2]; 0% on panel of 203 kinases [3]; 82.8% at panel of 203 kinases [4]; 0% on panel of 203 kinases [5]; 97.3% at panel of 203 kinases [6]. Also, the inhibition at 10 µM on panel of 203 kinases [7] worked out at 0%; at panel of 203 kinases [8] it was 81.9%; at panel of 203 kinases [9], 0%; at panel of 203 kinases [10] it was 0%; at panel of 203 kinases [11] it was 0%; on panel of 203 kinases [12], 0%.

These data come from paper PMC9927415, “Tyrosine Kinase Inhibitors Display Potent Activity against Cryptosporidium parvum” (Microbiology Spectrum, 2022).
